Test results published in US20260069693A1, “UROLITHINS AND T-CELL MEDIATED IMMUNE RESPONSE” (priority 2022, published 2026).

Tests used:
APTK-OVA tumors = test: adoptive transfer of UA-conditioned OT-1 T cells into mice bearing APTK-OVA tumors; assay type: in vivo, Rag1^−/− mice
From the text: Adoptive cell transfer (ACT) represents the infusion of antigen-specific leukocytes with direct antitumor activity, yet identification, selection and expansion of lymphocyte subsets harboring optimal antitumor qualities remains one of the most crucial challenges (Rosenberg and Restifo, 2015). ACT benefits especially from minimally differentiated cells due to their improved survival and long-term potential to generate unexhausted effector cells (Luca Gattinoni et al; Mo et al., 2021; Roberto et al., 2015). In particular, CD8^+ T cells restricted in a stem-like state have been associated with enhanced tumor suppressive properties upon adoptive cell transfer (Enrico Lugli et al; Verma et al., 2021). […] The inventors cultured T cells from OT-1 donor mice (FIG. 3A) for 48 hours in the presence of UA or vehicle control, followed by adoptive transfer into immunodeficient Rag1^−/− mice. […] Moreover, consistent with an improved memory response, animals receiving UA-pretreated T cells contained less Tim3^HiPD1^Hi terminally exhausted CD8^+ T cells in the TME (FIG. 3I). Thus, UA augments immune-mediated antitumor memory upon adoptive cell transfer.
For adoptive cell transfer transfer, purified splenic T cell from OT1 mice were isolated and activated using aCD3/aCD28 stimulation beads for 48 h. After magnetic bead removal, 1×10^6 T of activated T cell were intravenously injected into Rag1^−/− recipients. To study survival of transferred T cells, stimulated OT-1 T cells were injected into mice without tumors. Subsequently, after 7 days, spleens were isolated and splenocytes were stained for the CD8^+ subsets as described below. To understand antitumor immunity conferred by transferred OT-1 lymphocytes, cells were injected into mice carrying APTK-OVA tumors 10 days after subcutaneous organoid transplantation. Tumor growth was assessed as described above. Mice were kept under regular chow food for the T cell adoptive transfer experiment and sacrificed collectively when maximum tumor diameter extended 1.5 cm.
Tumors were minced and digested with Tumor & Tissue Dissociation Reagent (BD Horizon) for 30 min. The remaining organ pieces were filtered through a 70 μm cell strainer. Cells were then washed with PBS 1% BSA and 2 mM EDTA. Immune cells were enriched on a 30%/40%/75% Percoll gradient after a 1700 rpm 17 min centrifugation. […]

[1] = commercially-available supplements containing UA; cited from earlier work
APTK-s.c. tumors = test: subcutaneous APTK tumors in Rag1-/- mice, UA diet; settings: absence of mature T and B cells; UA-containing vs control food
[2] = UA-T cell transfer vs DMSO treated OT-I T cells

## O=c1oc2cc(O)ccc2c2ccc(O)cc12 [UA, Urolithin A]
APTK-OVA tumors; [2]
  CD62L expression in CD8+ TIL: remained unchanged
  expression of CD44 in CD8+ TIL: lower expression
  number of TCF1Hi CD8+ tumor infiltrating T cells: higher number
APTK-OVA tumors; UA-conditioned (25 μM, 48 h) vs control OT-I T cells
  tumor suppression (growth, final tumor weight): more substantial tumor suppression
APTK-OVA tumors; UA-pretreated vs DMSO treated OT-I T cells
  Tim3HiPD1Hi terminally exhausted CD8+ T cells in the TME: less
[1]
  bioavailability profile in humans: favorable bioavailability profile
  safety in humans: deemed safe
APTK-s.c. tumors
  tumor growth (protective effect of UA): abrogated the protective effect of UA
